Assay results: patent publication EP1218012B1, “USE OF ALPROSTADIL (PROSTAGLANDIN E1) FOR PRODUCING A MEDICAMENT FOR ANGIONEOGENESIS” (Mehrabi, Mohammad Reza, priority 1999, dated 2001)

What was measured:
Patienten mit CMP [1] = experiment: Capillary density in transmural sections of explanted hearts (immunohistochemistry); type: in vivo; conditions: for Kapillardichte: explanted hearts after infusion therapy
From the text: Um die Frage zu beantworten, ob nun die Alprostadil (PGE1)-Infusionstherapie […] HTX die […] von Patienten mit vorangegangener Alprostadil (PGE 1)-Infusionstherapie und von Patienten ohne alprostadil (PGE 1)-Therapie immunhistochemisch untersucht und die […]. Jedes […] Herz wurde in drei gleich große Stücke, nämlich in Spitze, mittleren und […]. Die […] transmural durch den […] immunohistochemische Analysen wurde sofort […] in Formaldehyd nach der üblichen Methode konserviert. Die […] wurde getrennt im Subepicardium, Myocardium und dem Subendocardium bestimmt. Die Bestimmung […] 1,mm^2 wurde getrennt anhand von anti-CD34, von Willebrand-Faktor (vwf), vascular-endothelial-growth-factor (VEGF) , anti-Ki 67 (MIB 1) und Sirius Rot, immunhistochemisch […]. Die […] Subepicardium, Myocardium und Subendocardium von transmuralen […] wurde quantitativ bestimmt und verglichen. Patienten, die eine Alprostadil (PGE 1)- Infusionen […]. Die […] Subepicardium, Myocardium und Subendocardium von der Kontrollgruppe betrug 608,56 ± 91,32 […]), 542,44 ± 197,20 […]^2 (sEndo), und 452,22 - 101,99 […]^2 (Myo) in den drei transmuralen-[…]. Alprostadil (PGE 1)-behandelte Patienten hatten im Vergleich dazu mit 1168,11 ± 165,04 […]), 1066,00 ± 94,63 […]^2 (SEndo), und 974,56 ± 87,12 […]^2 (Myocard), ungefähr 50% […]. Untersuchung hinsichtlich spezifischer immunohistochemischer […]: […]

CD 34 = experiment: Anti-CD34 reactive endothelium in explanted hearts (immunohistochemistry); type: in vivo, Patienten
From the text: Um die Frage zu beantworten, ob nun die Alprostadil (PGE1)-Infusionstherapie […] HTX die […] von Patienten mit vorangegangener Alprostadil (PGE 1)-Infusionstherapie und von Patienten ohne alprostadil (PGE 1)-Therapie immunhistochemisch untersucht und die […]. Jedes […] Herz wurde in drei gleich große Stücke, nämlich in Spitze, mittleren und […]. Die […] transmural durch den […] immunohistochemische Analysen wurde sofort […] in Formaldehyd nach der üblichen Methode konserviert. Die […] wurde getrennt im Subepicardium, Myocardium und dem Subendocardium bestimmt. Die Bestimmung […] 1,mm^2 wurde getrennt anhand von anti-CD34, von Willebrand-Faktor (vwf), vascular-endothelial-growth-factor (VEGF) , anti-Ki 67 (MIB 1) und Sirius Rot, immunhistochemisch […]. CD 34 wird von allen Endothelzellen im normalen Gewebe exprimiert. CD 34 wird auch zum Nachweis von Endothel bzw. -zellen benutzt. Patienten nach einer Alprostadil (PGE […] Endothel (Fig.1) auf als die Kontrollgruppe (Subepicardium: 599,22 ± 107,17 mm^2 gegenüber 322,89 ± 160,64 mm^2-Zellen, p <0,001; Myocardium: 482,11 ± 79,86 mm^2 vs. 227,22 ± 49,30 mm^2 , p<0.0001; Subendocardium: 482,11 ± 79,86 mm^2 gegenüber 227,22 ± 49,30 mm^2, p <0,0001); Subendocardium: 551,67 ± 107.74 mm^2 gegenüber 308,56 ± 193.86 mm^2, p < 0,01). Die Ergebnisse sind auch in Fig.6A, 8A und 8B dargestellt.

[2] = tested on: Von Willebrand Faktor (vWf); experiment: Anti-vWf (factor VIII related antigen) reactive endothelium in explanted hearts (immunohistochemistry); type: in vivo, Patienten
From the text: Um die Frage zu beantworten, ob nun die Alprostadil (PGE1)-Infusionstherapie […] HTX die […] von Patienten mit vorangegangener Alprostadil (PGE 1)-Infusionstherapie und von Patienten ohne alprostadil (PGE 1)-Therapie immunhistochemisch untersucht und die […]. Jedes […] Herz wurde in drei gleich große Stücke, nämlich in Spitze, mittleren und […]. Die […] transmural durch den […] immunohistochemische Analysen wurde sofort […] in Formaldehyd nach der üblichen Methode konserviert. Die […] wurde getrennt im Subepicardium, Myocardium und dem Subendocardium bestimmt. Die Bestimmung […] 1,mm^2 wurde getrennt anhand von anti-CD34, von Willebrand-Faktor (vwf), vascular-endothelial-growth-factor (VEGF) , anti-Ki 67 (MIB 1) und Sirius Rot, immunhistochemisch […] Marker wurde Faktor VIII immunhistochemisch untersucht. Die Herzen von CMP-Patienten nach Alprostadil(PGE 1)-Infusionstherapie zeigten bedeutend […] Endothelien (Abb.2) verglichen mit der Kontrollgruppe (Subepicardium: 425,56 ± 134.17 mm^2 gegenüber 192,22 ± 77,88 mm^2-Zellen, p <0,001; Myocardium: 360,00 ± 52,31 mm^2 gegenüber 159,89 ± 61.00 mm^2 p <0,0001; Subendocardium: 408,00 ± 80,00 mm^2 gegenüber 163,89 ± 47,52 mm^2, p <0,0001). Die Ergebnisse sind auch in Fig.6B, 8C und 8D dargestellt.

MIB-1 (anti-Ki67) = MIB-1 (anti-Ki67) positive cells in explanted hearts (proliferation marker); type: in vivo, Patienten
From the text: Um die Frage zu beantworten, ob nun die Alprostadil (PGE1)-Infusionstherapie […] HTX die […] von Patienten mit vorangegangener Alprostadil (PGE 1)-Infusionstherapie und von Patienten ohne alprostadil (PGE 1)-Therapie immunhistochemisch untersucht und die […]. Jedes […] Herz wurde in drei gleich große Stücke, nämlich in Spitze, mittleren und […]. Die […] transmural durch den […] immunohistochemische Analysen wurde sofort […] in Formaldehyd nach der üblichen Methode konserviert. Die […] wurde getrennt im Subepicardium, Myocardium und dem Subendocardium bestimmt. Die Bestimmung […] 1,mm^2 wurde getrennt anhand von anti-CD34, von Willebrand-Faktor (vwf), vascular-endothelial-growth-factor (VEGF) , anti-Ki 67 (MIB 1) und Sirius Rot, immunhistochemisch […]. MIB-1 (anti-Ki67), ist ein Antikörper, der nur […], die nicht in der GO-Phase des Zellzyklus sind und wird üblicher Weise als Mitose- oder Proliferationsmarker eingesetzt. Er zeigt […] Reaktion bei mitotischen Zellen. Bei der Gruppe der Patienten mit Alprostadil(PGE 1)-Infusionstherapie war die Anzahl der MIB-1 positiven Zellen (Fig.3) in allen […] des Herzmuskels deutlich höher verglichen mit der Kontrollgruppe: (Subepicardium: 20,22 ± 4,87 pro mm^2 gegenüber 8,11 ± 2,67 pro mm^2, p <0,0001; Myocardium: 15,44 ± 4,64 pro mm^2 gegenüber 5,78 ± 2,11 pro mm^2, p <0,0001; Subendocardium: 17,84 ± 4,23 pro mm^2 gegenüber 6,89 ± 2,21 pro mm2). Die Ergebnisse sind auch in Fig.6C, 8G und 8H dargestellt.

VEGF = experiment: VEGF-positive capillaries in explanted hearts (immunohistochemistry); type: in vivo, Patienten
From the text: Um die Frage zu beantworten, ob nun die Alprostadil (PGE1)-Infusionstherapie […] HTX die […] von Patienten mit vorangegangener Alprostadil (PGE 1)-Infusionstherapie und von Patienten ohne alprostadil (PGE 1)-Therapie immunhistochemisch untersucht und die […]. Jedes […] Herz wurde in drei gleich große Stücke, nämlich in Spitze, mittleren und […]. Die […] transmural durch den […] immunohistochemische Analysen wurde sofort […] in Formaldehyd nach der üblichen Methode konserviert. Die […] wurde getrennt im Subepicardium, Myocardium und dem Subendocardium bestimmt. Die Bestimmung […] 1,mm^2 wurde getrennt anhand von anti-CD34, von Willebrand-Faktor (vwf), vascular-endothelial-growth-factor (VEGF) , anti-Ki 67 (MIB 1) und Sirius Rot, immunhistochemisch […]. VEGF ist beschrieben als spezifischer Wachstumsfaktor für Endothelzellen. Alprostadil (PGE 1)-behandelte Patienten zeigten bedeutend mehr VEGF-positive […] als die Kontrollgruppe (Fig.4) in allen drei untersuchten Abschnittsebenen (Subepicardium: 101,2 ± 5,5/mm^2 gegenüber 38.1 ± 7,2-VEGF-positive Zellen/mm^2, p <0,0001; Myocardium 76,2 ± 4,9/mm^2 gegenüber 20,6 ± 4,9/mm^2, p <0,0001; Subendocardium: 89,1 ± 5,7/mm^2 gegenüber 27,8 ± 5,1/mm^2, p <0,0001). Die Ergebnisse sind auch in Fig.6D, 8E und 8F dargestellt.

[3] = tested on: Patienten mit dilatativer CMP; experiment: Fibrosis degree and heart muscle fraction (Sirius red staining) in explanted hearts; type: in vivo; conditions: patients with dilated CMP
From the text: Die […] wurde getrennt im Subepicardium, Myocardium und dem Subendocardium bestimmt. Die Bestimmung […] 1,mm^2 wurde getrennt anhand von anti-CD34, von Willebrand-Faktor (vwf), vascular-endothelial-growth-factor (VEGF) , anti-Ki 67 (MIB 1) und Sirius Rot, immunhistochemisch […]. Die Bestimmung des Fibrosegrads und des Herzmuskelanteils bei Alprostadil (PGE 1)-behandelten Patienten (Fig.5) gegenüber der Kontrollgruppe zeigte, dass die Alprostadil (PGE1)- Infusionstherapie den Fibrosegrad bei […] CMP […] (15,35 ± 10,32% gegenüber 6,89 ± 3,59%, p <0,05, bei einem vergleichbaren Herzmuskelanteil (72,69 ± 5,25% gegenüber 68,75 ± 6,23%).

Patienten = experiment: Hypertrophy: muscle count and percent muscle fraction per mm^2; type: in vivo; conditions: treated patients
From the text: In PGE1-behandelten Patienten wurden Muskelzahl/mm^2 mit prozentuellem Muskelanteil/mm^2 bestimmt und mit unbehandelten Patienten und gesunden Kontrollen verglichen. Die Ergebnisse sind in der nachfolgenden Tabelle angegeben.

Patienten mit CMP [4] = experiment: Clinical infusion therapy study in CMP patients awaiting heart transplantation (haemodynamics, clinical state, maximum tolerated dose); type: in vivo
From the text: Patienten mit CMP wurden für eine Herztranslation (HTX) angemeldet und medikamentös mit ACE-Hemmern, β-Blocker, Diuretika und Digitalis behandelt.
In einer vorangegangenen Studie erhielten mehrere Patienten mit Kardiomyopathie, darunter 9 Patienten mit dilatativer CMP vor einer HTX zusätzlich eine Alprostadil (PGE 1)-Infusionstherapie.
Die Einschlusskriterien für die Alprostadil (PGE 1)-Studie waren: • a. Patienten waren in ihrer täglichen Aktivität schwerwiegend eingeschränkt, obwohl sie eine maximale oralmedikamentöse Therapie mit ACE-Hemmer (Angiotensin-Converting-Enzym-Antagonisten), Diuretika und Digitalis bekamen. • b. Die Hämodynamik der Patienten zeigte einen niedrigen Herz-Index (< 2,5 L/min/m2) und einen höheren PCWP (pulmonory capillary wedge pressure) > 20 mm HG). • c. CMP-Patienten, die einen erhöhten peripheren Gefäßwiderstand aufweisen.
Die Infusionstherapie erfolgte unter laufender Messung der hämodynamischen Parameter. […] In dieser klinisch-experimentellen Studie wurde die Alprostadil (PGE1)-Infusionstherapie bei Patienten im Endstadium der Herizinsuffizienz im Sinne einer adjuvanten Therapie bis zur HTX verwendet.
Die Alprostadil (PGE1)-Infusionen erfolgten über einen zentralen Rechtsherzkatheter (Hickman-Katheter) mit einer anfänglichen Dosis von 2,5 ng/kg/min, die dann bis zur maximal tolerierten Dosis (MTD) gesteigert wurde. MTD war die Dosis, bei der eine der folgenden Nebenwirkungen auftraten: Muskelschmerzen, Knochenschmerzen, Blutdruckabfall, Übelkeit, Erbrechen, Durchfall, Kopfschmerzen oder andere Nebvenwirkungen. Unter der MTD (29 ± 1 ng/kg/min) wurden die hämodynamischen Parameter dokumntiert. Die MTD wurde in den folgenden 12 Stunden halbiert und nach der Stabilisierung der Hämodynamik wurde die Therapie mit einer tragbaren Pumpe zu Hause fortgesetzt.

[5] = tested on: Patienten mit chronischer Herzinsuffizien; conditions: compared with the dobutamine-treated group; cited from earlier work
[6] = tested on: Patienten mit akutem Leberversagen; conditions: treatment begun only 10 days after onset of clinical symptoms; cited from earlier work
Tierversuche = conditions: infused directly into hepatic veins, treated group; cited from earlier work

## CCCCC[C@H](O)/C=C/[C@H]1[C@H](O)CC(=O)[C@@H]1CCCCCCC(=O)O [Alprostadil, Prostaglandin E1]
Patienten mit CMP [1]; Myocardium (Myocard)
  Kapillardichte: 974,56 ± 87,12 Kapillaren/mm^2
Patienten mit CMP [1]; Subendocardium (SEndo)
  Kapillardichte: 1066,00 ± 94,63 Kapillaren/mm^2
Patienten mit CMP [1]; Subepicardium (sEpi)
  Kapillardichte: 1168,11 ± 165,04 Kapillaren/mm^2
Patienten mit CMP [1]; treated patients versus control group
  mehr Kapillaren als die Kontrollgruppe: ~50%
CD 34; Myocardium
  anti-CD34 reaktives Endothel: 482,11 ± 79,86 mm^2
CD 34; Subendocardium
  anti-CD34 reaktives Endothel: 482,11 ± 79,86 mm^2
CD 34; Subepicardium
  anti-CD34 reaktives Endothel: 599,22 ± 107,17 mm^2
[2]; Myocardium
  anti-vWf reaktive Endothelien: 360,00 ± 52,31 mm^2
[2]; Subendocardium
  anti-vWf reaktive Endothelien: 408,00 ± 80,00 mm^2
MIB-1 (anti-Ki67); Myocardium
  Anzahl der MIB-1 positiven Zellen: 15,44 ± 4,64 pro mm^2
MIB-1 (anti-Ki67); Subendocardium
  Anzahl der MIB-1 positiven Zellen: 17,84 ± 4,23 pro mm^2
MIB-1 (anti-Ki67); Subepicardium
  Anzahl der MIB-1 positiven Zellen: 20,22 ± 4,87 pro mm^2
VEGF; Myocardium
  VEGF-positive Kapillaren/mm^2: 76,2 ± 4,9 /mm^2
VEGF; Subendocardium
  VEGF-positive Kapillaren/mm^2: 89,1 ± 5,7 /mm^2
VEGF; Subepicardium
  VEGF-positive Kapillaren/mm^2: 101,2 ± 5,5 /mm^2
[3]
  Fibrosegrad: 6,89 ± 3,59%
  Herzmuskelanteil: 72,69 ± 5,25%
Patienten
  % Muskelanteil/mm^2: 74,9 ± 3,7%
  Muskelzahl/mm^2: 982,68 ± 141,43 /mm^2
Patienten mit CMP [4]; end-stage heart failure, with increased ejection fraction and cardiac output, reduced NYHA stage and pulmonary circulation pressures
  klinischer Zustand: deutliche Verbesserung
Patienten mit CMP [4]; infusion via central right-heart catheter, escalated from 2,5 ng/kg/min until side effects occurred
  maximal tolerierte Dosis (MTD): 29 ± 1 ng/kg/min
Patienten mit CMP [4]; under infusion therapy
  hämodynamische Parameter im Vergleich zu den Ausgangswerten: deutliche Verbesserung
[5]
  Nierenfunktion (Paraaminohippurat-Clearance, Iothalamat-Clearance): bessere Nierenwerte
  hämodynamischer Effekt: besseren hämodynamischen Effekt
[6]
  Wirkung bei akutem Leberversagen: keine Wirkung
Tierversuche
  Leukozyten (serologisch): mehr Leukozyten
